Columns and labels:
[1] = molecular target: T1, Alpha-1B adrenergic receptor (Rattus norvegicus, UniProt P15823); assay: DRUGMATRIX: Alpha-1B adrenergic receptor radioligand binding (ligand: prazosin); type: cell membranes, Wistar, Liver, Membrane; conditions: Not Active = under 50% inhibition at 10 µM
T1 sequence (P15823 whole entry): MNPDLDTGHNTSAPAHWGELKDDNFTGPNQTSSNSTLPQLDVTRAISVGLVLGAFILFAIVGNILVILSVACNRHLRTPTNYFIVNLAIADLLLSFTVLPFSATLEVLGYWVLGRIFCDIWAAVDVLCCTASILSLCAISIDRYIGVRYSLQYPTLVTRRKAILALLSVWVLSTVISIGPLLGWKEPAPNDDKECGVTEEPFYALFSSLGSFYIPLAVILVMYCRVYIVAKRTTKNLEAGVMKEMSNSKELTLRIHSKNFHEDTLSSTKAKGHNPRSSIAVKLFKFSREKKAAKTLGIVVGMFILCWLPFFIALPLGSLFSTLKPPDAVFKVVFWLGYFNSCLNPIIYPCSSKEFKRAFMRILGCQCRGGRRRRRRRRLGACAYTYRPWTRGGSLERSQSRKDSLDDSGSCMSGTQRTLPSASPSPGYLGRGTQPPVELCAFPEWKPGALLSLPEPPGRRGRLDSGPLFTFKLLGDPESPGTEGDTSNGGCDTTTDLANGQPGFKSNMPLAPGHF

[2] = molecular target: Aldo-keto reductase family 1 member B1 (Rattus norvegicus, UniProt P07943); assay: biochemical; type: tissue-based, Lens of camera-type eye;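 further: inhibition of aldose reductase enzyme activity, measured with DL-glyceraldehyde as the substrate; in other assays of this panel Not Active means under 50% inhibition at 10 µM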
[3] = DRUGMATRIX: Calcium Channel Type L, Benzothiazepine radioligand binding (ligand: [3H] Diltiazem); type: cell membranes, Rattus norvegicus, Wistar, Brain, Membrane; conditions: Not Active = under 50% inhibition at 10 µM
[4] = molecular target: C-C chemokine receptor type 2 (Homo sapiens, UniProt P41597); type: cell membranes, CHO-K1, Membrane; conditions: cho-k1; further: in other assays of this panel Not Active means under 50% inhibition at 10 µM
Chain of C-C chemokine receptor type 2 (P41597 whole entry): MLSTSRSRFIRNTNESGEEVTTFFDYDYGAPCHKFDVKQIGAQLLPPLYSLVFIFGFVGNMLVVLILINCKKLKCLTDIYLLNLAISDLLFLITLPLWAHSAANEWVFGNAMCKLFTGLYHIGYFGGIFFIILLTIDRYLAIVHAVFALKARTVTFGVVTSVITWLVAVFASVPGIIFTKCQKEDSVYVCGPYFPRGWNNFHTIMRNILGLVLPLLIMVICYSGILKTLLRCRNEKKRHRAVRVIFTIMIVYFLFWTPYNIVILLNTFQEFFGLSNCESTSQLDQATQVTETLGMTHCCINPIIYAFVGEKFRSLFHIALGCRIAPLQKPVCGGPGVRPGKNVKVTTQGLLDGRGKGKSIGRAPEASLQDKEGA

Histamine H2 receptor = Histamine H2 receptor (Homo sapiens, UniProt P25021); type: cell membranes, CHO-K1, Membrane; further: in other assays of this panel Not Active means under 50% inhibition at 10 µM
Chain of Histamine H2 receptor (P25021 whole entry): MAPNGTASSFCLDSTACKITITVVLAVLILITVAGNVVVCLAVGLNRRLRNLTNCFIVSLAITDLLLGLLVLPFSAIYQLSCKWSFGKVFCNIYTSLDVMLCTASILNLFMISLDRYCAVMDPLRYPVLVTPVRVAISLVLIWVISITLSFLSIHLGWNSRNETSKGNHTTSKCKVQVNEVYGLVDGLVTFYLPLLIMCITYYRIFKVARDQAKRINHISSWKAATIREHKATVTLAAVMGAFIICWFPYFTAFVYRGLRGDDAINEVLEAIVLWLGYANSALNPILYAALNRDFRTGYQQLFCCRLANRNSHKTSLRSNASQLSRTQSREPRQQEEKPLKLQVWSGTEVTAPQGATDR

[5] = DRUGMATRIX: Phorbol Ester radioligand binding (ligand: [3H] PDBu); type: cell membranes, Mus musculus, ICR, Brain, Membrane; conditions: Not Active = under 50% inhibition at 10 µM

Molecule	IC50 [1]	IC50 [2]	IC50 [3]	Ki [3]	IC50 [4]	IC50 (Histamine H2 receptor; cho-k1)	IC50 [5]	Ki [5]	IC50 ([1]; read-out: IC50)	Ki ([1]; read-out: Ki)	IC50 ([3]; read-out: IC50)	Ki ([3]; read-out: Ki)	IC50 (Histamine H2 receptor; read-out: IC50)	Ki (Histamine H2 receptor; read-out: Ki)	Ki [1]	Ki [2]	Ki [4]	Ki (Histamine H2 receptor; cho-k1)
Nc1nc(N)nc(-c2cc(Cl)ccc2Cl)n1.O=C(O)/C=C\C(=O)O [IRSOGLADINE MALEATE]	Not Active	Not Active	Not Active	Not Active	Not Active	Not Active	Not Active	Not Active										
CCC(C)n1ncn(-c2ccc(N3CCN(c4ccc(OCC5COC(Cn6cncn6)(c6ccc(Cl)cc6Cl)O5)cc4)CC3)cc2)c1=O (stereo unspecified) [ITRACONAZOLE]	Not Active	Not Active	Not Active	Not Active	Not Active	Not Active	Not Active	Not Active										
CCCCN1CCCC[C@H]1C(=O)Nc1c(C)cccc1C [LEVOBUPIVACAINE]	Not Active	Not Active	Not Active	Not Active	Not Active	Not Active	Not Active	Not Active										
Sc1ncnc2nc[nH]c12 [MERCAPTOPURINE ANHYDROUS]	Not Active	Not Active	Not Active	Not Active	Not Active	Not Active	Not Active	Not Active										
C[C@](N)(Cc1ccc(O)c(O)c1)C(=O)O [METHYLDOPA]	Not Active	Not Active	Not Active	Not Active	Not Active	Not Active	Not Active	Not Active										
C[C@]12CCC(=O)C=C1CC[C@@H]1[C@@H]2CC[C@@]2(C)[C@H]1CC[C@]2(C)O [METHYLTESTOSTERONE]	Not Active	Not Active	Not Active	Not Active	Not Active	Not Active	Not Active	Not Active										
Cc1ccccc1N1C(=O)c2cc(S(N)(=O)=O)c(Cl)cc2NC1C (stereo unspecified) [METOLAZONE]	Not Active	Not Active	Not Active	Not Active	Not Active	Not Active	Not Active	Not Active										
COCCc1ccc(OCC(O)CNC(C)C)cc1 (stereo unspecified) [METOPROLOL]	Not Active	Not Active	Not Active	Not Active	Not Active	Not Active	Not Active	Not Active										
CCn1cc(C(=O)O)c(=O)c2cc(F)c(N3CCNCC3)cc21 [NORFLOXACIN]	Not Active	Not Active	Not Active	Not Active	Not Active	Not Active	Not Active	Not Active										
NC1=NC(=O)C(c2ccccc2)O1 (stereo unspecified) [PEMOLINE]	Not Active	Not Active	Not Active	Not Active	Not Active	Not Active	Not Active	Not Active										
Nc1nc2c(ncn2CCC(CO)CO)c(=O)[nH]1 [PENCICLOVIR]	Not Active	Not Active	Not Active	Not Active	Not Active	Not Active	Not Active	Not Active										
C=C(C)C1(O)OC(=O)C=C1OC (stereo unspecified) [PENICILLIC ACID]	Not Active	Not Active	Not Active	Not Active	Not Active	Not Active	Not Active	Not Active										
CC1(C)S[C@@H]2[C@H](NC(=O)Cc3ccccc3)C(=O)N2[C@H]1C(=O)O [PENICILLIN G]	Not Active	Not Active	Not Active	Not Active	Not Active	Not Active	Not Active	Not Active										
CCCN1C[C@H](CSC)C[C@@H]2c3cccc4[nH]cc(c34)C[C@H]21 [PERGOLIDE]		Not Active			Not Active	Not Active	Not Active	Not Active	2620 nM	1450 nM	3300 nM	2930 nM						
C1CCC(C(CC2CCCCN2)C2CCCCC2)CC1 (stereo unspecified) [PERHEXILINE]	Not Active	Not Active			Not Active	Not Active	Not Active	Not Active			1060 nM	939 nM						
CCOc1ccc(NC(C)=O)cc1 [PHENACETIN]	Not Active	Not Active	Not Active	Not Active	Not Active	Not Active	Not Active	Not Active										
CNNCc1ccc(C(=O)NC(C)C)cc1 [PROCARBAZINE]	Not Active	Not Active	Not Active	Not Active	Not Active	Not Active	Not Active	Not Active										
CN(C)CCCN1c2ccccc2Sc2ccccc21 [PROMAZINE]		Not Active			Not Active		Not Active	Not Active	8.19 nM	4.53 nM	3220 nM	2860 nM	2860 nM	2810 nM				
CC(O)CO (stereo unspecified) [PROPYLENE GLYCOL]	Not Active	Not Active	Not Active	Not Active	Not Active	Not Active	Not Active	Not Active										
CADMIUM ACETATE	Not Active	Not Active	Not Active	Not Active	Not Active	Not Active	Not Active	Not Active							Not Active	Not Active	Not Active	Not Active
LEAD (II) ACETATE	Not Active	Not Active	Not Active	Not Active	Not Active	Not Active	Not Active	Not Active							Not Active	Not Active	Not Active	Not Active
LIPOPOLYSACCHARIDE E. COLI O55:B5	Not Active	Not Active	Not Active	Not Active	Not Active	Not Active	Not Active	Not Active							Not Active	Not Active	Not Active	Not Active

— ChEMBL document CHEMBL1909046, “DrugMatrix in vitro pharmacology data”
